These results are taken from patent US11285227B2, “Trifunctional constructs with tunablepharmacokinetics useful in imaging and anti-tumor therapies” (CORNELL UNIVERSITY, priority 2017, dated 2022).

By IC50 is commonly meant the concentration at which inhibition is half-maximal. Low values mean inhibition by little substance, high ones a need for much substance. For orientation: Kd means the equilibrium constant for the complex coming apart.

The target of data set [1] is T1, PSMA on LNCaP cells (Homo sapiens, UniProt Q04609). Kind of data set: cell-based.
T1 sequence (Q04609 whole entry): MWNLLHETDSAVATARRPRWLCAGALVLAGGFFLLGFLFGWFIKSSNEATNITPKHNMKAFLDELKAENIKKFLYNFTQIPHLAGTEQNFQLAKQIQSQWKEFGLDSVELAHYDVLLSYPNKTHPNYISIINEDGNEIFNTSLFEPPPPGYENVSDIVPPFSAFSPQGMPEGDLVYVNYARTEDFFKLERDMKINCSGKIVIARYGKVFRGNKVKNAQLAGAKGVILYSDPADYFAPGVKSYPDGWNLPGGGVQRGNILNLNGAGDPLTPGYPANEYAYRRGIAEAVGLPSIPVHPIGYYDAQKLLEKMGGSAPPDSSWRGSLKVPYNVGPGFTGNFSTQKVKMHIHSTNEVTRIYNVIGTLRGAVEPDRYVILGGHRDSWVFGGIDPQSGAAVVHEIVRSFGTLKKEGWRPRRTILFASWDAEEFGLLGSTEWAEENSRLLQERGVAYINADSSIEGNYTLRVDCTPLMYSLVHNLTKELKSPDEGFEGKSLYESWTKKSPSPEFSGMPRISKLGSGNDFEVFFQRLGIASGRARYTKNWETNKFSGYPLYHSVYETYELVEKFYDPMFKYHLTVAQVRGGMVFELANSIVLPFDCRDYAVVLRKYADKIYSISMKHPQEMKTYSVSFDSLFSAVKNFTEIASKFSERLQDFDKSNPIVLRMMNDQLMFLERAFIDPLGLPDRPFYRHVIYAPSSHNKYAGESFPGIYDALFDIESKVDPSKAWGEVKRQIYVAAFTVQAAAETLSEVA
Protocol: The PSMA expressing human prostate cancer cell line, LNCaP, was obtained from the American Type Culture Collection. […] LNCaP cells were maintained in RPMI-1640 medium supplemented with 10% fetal bovine serum (Hyclone), 4 mM L-glutamine, 1 mM sodium pyruvate, 10 mM N-2-hydroxyethylpiperazine-N-2-ethanesulfonic acid (HEPES), 2.5 mg/mL D-glucose, and 50 μg/mL gentamicin in a humidified incubator at 37° C./5% CO2. Cells were removed from flasks for passage or for transfer to 12-well assay plates by incubating them with 0.25% trypsin/ethylenediaminetetraacetic acid (EDTA).
Briefly, LNCaP cells were plated 72 h prior to the experiment to achieve a density of approximately 5×10^5 cells/well (in triplicate) in RPMI-1640 medium supplemented with 0.25% bovine serum albumin. The cells were incubated for 2 h with 1 nM ^99mTc-MIP-1427 in RPMI-1640 medium containing 0.00125% w/v bovine serum albumin [3] in the presence of 0.001-10,000 nM test compounds. Radioactive incubation media was then removed by pipette and the cells were washed twice using 1 mL ice-cold PBS 1× solution. Cells were harvested from the plates following treatment with 1 mL 1M NaOH and transferred to tubes for radioactive counting using a 2470 Wizard^2 Automatic Gamma Counter (Perkin Elmer). […] IC50 values were determined by fitting the data points to a sigmoidal Hills1 curve in Origin software.
Data set [2] relates to LNCaP xenograft tumor-bearing mice. Nature of the data set: Biodistribution studies of 177Lu-labeled ligands in LNCaP xenograft mice. The data set is classed as in vivo. How it is done: (§1) Inoculation of mice with xenografts: All animal studies were approved by the Institutional Animal Care and Use Committee of Weill Cornell Medicine and were undertaken in accordance with the guidelines set forth by the USPHS Policy on Humane Care and Use of Laboratory Animals. Animals were housed under standard conditions in approved facilities with 12 h light/dark cycles. Food and water was provided ad libitum throughout the course of the studies. Hairless male nu/nu mice were purchased from the Jackson Laboratory. For inoculation in mice, LNCaP cells were suspended at 4×10^7 cells/mL in a 1:1 mixture of PBS:Matrigel (BD Biosciences). Each mouse was injected in the left flank with 0.25 mL of the cell suspension. The mice were imaged when the tumors reached approximately 200-400 mm^3, while biodistributions were conducted when tumors were in the range 100-400 mm^3.
Biodistribution studies of ^177Lu-labeled ligands in LNCaP xenograft mice: LNCaP xenograft tumor-bearing mice (5 per time point per compound) were injected intravenously with a bolus injection of 348-851 kBq (9.4-23 μCi) and 37-50 ng (23-25 pmol) of each ligand. The mice were sacrificed at 4, 24 and 96 h post injection. A blood sample was removed, and a full biodistribution study was conducted on the following organs (with contents): heart, lungs, liver, small intestine, large intestine, stomach, spleen, pancreas, kidneys, muscle, bone and tumor. Tissues were weighed and counted on a 2470 Wizard^2 Automatic Gamma Counter (Perkin Elmer). Counts were corrected for decay and for activity injected, and tissue uptake was expressed as percent injected dose per gram (% ID/g). Standard error measurement was calculated for each data point.

For data set [3] the test system is unchanged. Kind of data set: Dosimetry (dose integrals from 177Lu biodistribution). It is filed as in vivo. The following applies: over 96 h. How it is done: Dosimetry: The dosimetry was calculated assuming a linear interpolation between the three time points. The average injected dose per organ was calculated by using the average of the activity and organ weights of the mice at that time point. Intermediate time points at every 4 hours were generated using the linear approximation and all time points were corrected for decay during the time interval between points. These curves were integrated using a trapezoidal approximation and the sum used to determine the residence time.

The test system is the same in data set [4]. Nature of the data set: Biodistribution of 225Ac-macropa-RPS-070 in LNCaP xenograft mice. It is filed as in vivo. The settings on record: 4-96 h; no accumulation in liver, spleen, bone. How it is done: Cell Culture. […] Cell culture supplies were from Invitrogen unless otherwise noted.
as §1, with “of Mice” for “of mice”, “with Xenografts.” for “with xenografts:”, “suspension. Biodistributions” for “suspension. The mice were imaged when the tumors reached approximately 200-400 mm^3, while biodistributions”
Biodistribution of ^225Ac-macropa-RPS-070 in LNCaP xenograft mice. […] Tissues were weighed and counted on a 2470 Wizard Automatic Gamma Counter (Perkin Elmer). 1% ID/mL samples were counted prior to and following each set of tissue samples to enable decay correction to be undertaken. Counts were corrected for decay and for activity injected, and tissue uptake was expressed as percent injected dose per gram (% ID/g). Standard error measurement was calculated for each data point.

Data set [5] concerns the target T1, PSMA on LNCaP cells. On the set-up: host or cells: LNCaP. The settings on record: binding to PSMA on LNCaP cells; cited from earlier work.

In data set [1], `O=C(O)CC[C@H](NC(=O)N[C@@H](CCCCNC(=O)Nc1cccc(-c2cn(CCOCCOCCOCCC(=O)N[C@@H](CCCCNC(=S)Nc3cc(CN4CCOCCOCCN(Cc5cccc(C(=O)O)n5)CCOCCOCC4)nc(C(=O)O)c3)C(=O)NCCOCCOCCOCCOCCOCCOCCOCCOCCC(=O)N[C@@H](CCCCNC(=O)CCCc3ccc(I)cc3)C(=O)O)nn2)c1)C(=O)O)C(=O)O` [RPS-074, (((S)-1-Carboxy-5-(3-(3-(1-((14S,45S)-45-carboxy-14-(4-(3-(2-carboxy-6-((16-((6-carboxypyridin-2-yl)methyl)-1,4,10,13-tetraoxa-7,16-diazacyclooctadecan-7-yl)methyl)pyridin-4-yl)thioureido)butyl)-54-(4-iodophenyl)-12,15,43,51-tetraoxo-3,6,9,19,22,25,28,31,34,37,40-undecaoxa-13,16,44,50-tetraazatetrapentacontyl)-1H-1,2,3-triazol-4-yl)phenyl)ureido)pentyl)carbamoyl)-L-glutamic acid] showed an IC50 of 12 ± 3.4 nM.

Turning to `O=C(O)CCC(NC(=O)NC(CCCCNC(=O)Nc1cccc(-c2cnnn2CC(=O)NC(CCCCNC(=S)Nc2ccc(CC3CN(CC(=O)O)CCN(CC(=O)O)CCN(CC(=O)O)CCN3CC(=O)O)cc2)C(=O)NC(CCCCNC(=O)Cc2ccc(I)cc2)C(=O)O)c1)C(=O)O)C(=O)O` (stereo not shown) [^177Lu-RPS-068, metal not drawn], the “Tumor uptake (in words)” value in data set [2] (4-96 h p.i.) is “high and remained high”. In data set [2] (4 h p.i.), the “Blood activity (in words)” value is recorded as “highest blood activity” and the Tumor uptake is 21.8±2.8 % ID/g. In data set [2] (24 h p.i.), this molecule had a Kidney uptake of 87.3±6.7 % ID/g. Further, in data set [2] (96 h p.i.), the Tumor uptake is 14.9±1.5 % ID/g and the Tumor-to-kidney ratio is 1.56±0.23. The “Dose integral in the tumor relative to 177Lu-PSMA-617” value in data set [3] is reported as “nearly four times higher”.

For the molecule `O=C(O)CC[C@H](NC(=O)N[C@@H](CCCCNC(=O)Nc1cccc(-c2cn(CCOCCOCCOCCOCCOCCOCCC(=O)N[C@@H](CCCCNC(=S)Nc3cc(CN4CCOCCOCCN(Cc5cccc(C(=O)O)n5)CCOCCOCC4)nc(C(=O)O)c3)C(=O)N[C@@H](CCCCNC(=O)Cc3ccc(I)cc3)C(=O)O)nn2)c1)C(=O)O)C(=O)O` [macropa-RPS-070, (((S)-1-Carboxy-5-(3-(3-(1-((23S,26S)-26-carboxy-23-(4-(3-(2-carboxy-6-((16-((6-carboxypyridin-2-yl)methyl)-1,4,10,13-tetraoxa-7,16-diazacyclooctadecan-7-yl)methyl)pyridin-4-yl)thioureido)butyl)-33-(4-iodophenyl)-21,24,32-trioxo-3,6,9,12,15,18-hexaoxa-22,25,31-triazatritriacontyl)-1H-1,2,3-triazol-4-yl)phenyl)ureido)pentyl)carbamoyl)-L-glutamic acid], the “Retention of 225Ac in vivo” value in data set [4] is given as “can stably retain ^225Ac in vivo over several days”.

For “^99mTc-((7S,12S,16S)-1-(1-(carboxymethyl)-1H-imidazol-2-yl)-2-((1-(carboxymethyl)-1H-imidazol-2-yl)methyl)-9,14-dioxo-2,8,13,15-tetraazaoctadecane-7,12,16,18-tetracarboxylic acid technetium tricarbonyl complex) [^99mTc-MIP-1427]”, the Kd in data set [5] is 0.64 ± 0.46 nM.
